Data as given in patent US20170226081A1, “GLUCOSE TRANSPORT INHIBITORS” (Bayer Pharma Aktiengesellschaft, priority 2014, published 2017).

Molecular target: T1, GLUT1 (Homo sapiens, UniProt P11166)
T1 construct: endogenous in cells
T1 sequence (P11166 1-492): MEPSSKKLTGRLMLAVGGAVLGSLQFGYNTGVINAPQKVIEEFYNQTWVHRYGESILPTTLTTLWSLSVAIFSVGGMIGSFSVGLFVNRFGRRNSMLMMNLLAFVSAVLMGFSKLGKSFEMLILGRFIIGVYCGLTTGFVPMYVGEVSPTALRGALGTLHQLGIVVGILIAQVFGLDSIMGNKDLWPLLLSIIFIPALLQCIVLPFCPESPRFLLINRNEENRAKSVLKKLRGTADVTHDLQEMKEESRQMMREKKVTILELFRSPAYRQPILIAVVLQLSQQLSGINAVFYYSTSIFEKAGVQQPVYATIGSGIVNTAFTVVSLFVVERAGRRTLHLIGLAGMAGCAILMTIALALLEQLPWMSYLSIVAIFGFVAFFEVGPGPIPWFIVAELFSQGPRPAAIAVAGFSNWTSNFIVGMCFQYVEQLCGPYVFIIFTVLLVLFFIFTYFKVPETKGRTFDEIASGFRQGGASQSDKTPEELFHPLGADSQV
Experiment: Indirect measurement of GLUT activity by quantification of intracellular ATP levels (glucose induced ATP increase)
Type: cell-based
Settings: DLD1 cells; 1 mM glucose, 1 uM Rotenone, 15 min; standardized to cytochalasin B IC50 values; read-out: IC50 regarding glucose induced ATP increase (GLUT1 inhibition)
Excerpt: It is well known that a combination of small-molecule inhibitors of mitochondrial electron transport chain and glucose catabolism synergistically suppress ATP production and impair cellular viability (Ulanovskaya et al., 2008, 2011; Liu, et al. 2001). We therefore used DLD1 or CHO-K1 cells in combination with an oxidative phosphorylation inhibitor to identify GLUT inhibitors. Cell lines were maintained in DMEM medium supplemented with 10% FCS and 1% Penicillin-Streptomycin solution and 2% Glutamax. The cells were treated with trypsin and seeded into 384 plates at a density of 4000 cells/well. The cells were then cultured overnight in glucose free media containing 1% FCS to reduce intracellular ATP levels. After 24 h the cells were incubated at 37° C. containing the appropriate glucose or in case of GLUT2 fructose concentration (1 mM and 30 mM respectively) with or without compounds and 1 uM Rotenone for 15 min. The CellTiter-Glo® Luminescent Cell Viability Assay from Promega was then used to measure ATP levels. Compounds able to reduce the ATP Levels within 15 min of glucose application were considered to be glucose uptake inhibitors.

SMILES	IC50
CC(c1ccc(C#N)cc1)n1cc(NC(=O)c2cc(C(N)=O)nc3ccccc23)c(C(F)(F)F)n1 (racemic) [Example 40, (±)—N^4-{1-[1-(4-cyanophenyl)ethyl]-3-(trifluoromethyl)-1H-pyrazol-4-yl}quinoline-2,4-dicarboxamide]	32 nM
Cc1nn(Cc2ccc(F)cc2)cc1NC(=O)c1cc(C(F)(F)F)nc2cc(F)c(F)cc12 [Example 2, 6,7-difluoro-N-[1-(4-fluorobenzyl)-3-methyl-1H-pyrazol-4-yl]-2-(trifluoromethyl)quinoline-4-carboxamide]	505 nM
COc1cc(C(=O)Nc2cn(Cc3ccc(F)cc3)nc2C)c2ccccc2n1 [Example 3, N-[1-(4-fluorobenzyl)-3-methyl-1H-pyrazol-4-yl]-2-methoxyquinoline-4-carboxamide]	150 nM
Cc1nn(Cc2ccc(F)cc2)cc1NC(=O)c1cc(C(F)(F)F)nc2ccc(Br)cc12 [Example 4, 6-bromo-N-[1-(4-fluorobenzyl)-3-methyl-1H-pyrazol-4-yl]-2-(trifluoromethyl)quinoline-4-carboxamide]	111 nM
Cc1nn(Cc2ccc(F)cc2)cc1NC(=O)c1cc(C(N)=O)nc2ccccc12 [Example 5, N^4-[1-(4-fluorobenzyl)-3-methyl-1H-pyrazol-4-yl]quinoline-2,4-dicarboxamide]	15 nM
Cc1nn(Cc2ccc(F)cc2)cc1NC(=O)c1cc(C2CC2)nc2ccc(F)cc12 [Example 6, 2-cyclopropyl-6-fluoro-N-[1-(4-fluorobenzyl)-3-methyl-1H-pyrazol-4-yl]quinoline-4-carboxamide]	125 nM
Cc1nn(Cc2ccc(F)cc2)cc1NC(=O)c1cc(C(F)(F)F)nc2c(Cl)cc(Cl)cc12 [Example 7, 6,8-dichloro-N-[1-(4-fluorobenzyl)-3-methyl-1H-pyrazol-4-yl]-2-(trifluoromethyl)quinoline-4-carboxamide]	176 nM
Cc1nn(Cc2ccc(C#N)cc2)cc1NC(=O)c1cc(C(F)(F)F)nc2ccc(Br)cc12 [Example 8, 6-bromo-N-[1-(4-cyanobenzyl)-3-methyl-1H-pyrazol-4-yl]-2-(trifluoromethyl)quinoline-4-carboxamide]	21 nM
COc1cc(C(=O)Nc2cn(Cc3ccc(C#N)cc3)nc2C)c2ccccc2n1 [Example 10, N-[1-(4-cyanobenzyl)-3-methyl-1H-pyrazol-4-yl]-2-methoxyquinoline-4-carboxamide]	79 nM
COc1ccc(Cn2cc(NC(=O)c3cc(OC)nc4ccccc34)c(C)n2)cc1 [Example 11, 2-methoxy-N-[1-(4-methoxybenzyl)-3-methyl-1H-pyrazol-4-yl]quinoline-4-carboxamide]	21 nM
COc1ccc(Cn2cc(NC(=O)c3cc(C(F)(F)F)nc4ccc(Br)cc34)c(C)n2)cc1 [Example 12, 6-bromo-N-[1-(4-methoxybenzyl)-3-methyl-1H-pyrazol-4-yl]-2-(trifluoromethyl)quinoline-4-carboxamide]	29 nM
COc1ccc(Cn2cc(NC(=O)c3cc(C(N)=O)nc4ccccc34)c(C)n2)cc1 [Example 13, N^4-[1-(4-methoxybenzyl)-3-methyl-1H-pyrazol-4-yl]quinoline-2,4-dicarboxamide]	2.3 nM
Cc1nn(Cc2ccccc2C#N)cc1NC(=O)c1cc(C(F)(F)F)nc2ccc(Br)cc12 [Example 14, 6-bromo-N-[1-(2-cyanobenzyl)-3-methyl-1H-pyrazol-4-yl]-2-(trifluoromethyl)quinoline-4-carboxamide]	97 nM
COc1cc(C(=O)Nc2cn(Cc3ccccc3C#N)nc2C)c2ccccc2n1 [Example 15, N-[1-(2-cyanobenzyl)-3-methyl-1H-pyrazol-4-yl]-2-methoxyquinoline-4-carboxamide]	116 nM
Cc1nn(Cc2ccccc2C#N)cc1NC(=O)c1cc(C(N)=O)nc2ccccc12 [Example 16, N^4-[1-(2-cyanobenzyl)-3-methyl-1H-pyrazol-4-yl]quinoline-2,4-dicarboxamide]	137 nM
COC(=O)c1nn(Cc2ccc(F)cc2)cc1NC(=O)c1cc(C(F)(F)F)nc2ccc(Br)cc12 [Example 17, methyl 4-({[6-bromo-2-(trifluoromethyl)quinolin-4-yl]carbonyl}amino)-1-(4-fluorobenzyl)-1H-pyrazole-3-carboxylate]	64 nM
O=C(O)c1nn(Cc2ccc(F)cc2)cc1NC(=O)c1cc(C(F)(F)F)nc2ccc(Br)cc12 [Example 18, 4-({[6-bromo-2-(trifluoromethyl)quinolin-4-yl]carbonyl}amino)-1-(4-fluorobenzyl)-1H-pyrazole-3-carboxylic acid]	6.5 nM
CN(C)C(=O)c1nn(Cc2ccc(F)cc2)cc1NC(=O)c1cc(C(F)(F)F)nc2ccc(Br)cc12 [Example 19, 6-bromo-N-[3-(dimethylcarbamoyl)-1-(4-fluorobenzyl)-1H-pyrazol-4-yl]-2-(trifluoromethyl)quinoline-4-carboxamide]	20 nM
O=C(NCCO)c1nn(Cc2ccc(F)cc2)cc1NC(=O)c1cc(C(F)(F)F)nc2ccc(Br)cc12 [Example 20, 6-bromo-N-{1-(4-fluorobenzyl)-3-[(2-hydroxyethyl)carbamoyl]-1H-pyrazol-4-yl}-2-(trifluoromethyl)quinoline-4-carboxamide]	2000 nM
NC(=O)c1nn(Cc2ccc(F)cc2)cc1NC(=O)c1cc(C(F)(F)F)nc2ccc(Br)cc12 [Example 21, 6-bromo-N-[3-carbamoyl-1-(4-fluorobenzyl)-1H-pyrazol-4-yl]-2-(trifluoromethyl)quinoline-4-carboxamide]	1150 nM
CNC(=O)c1nn(Cc2ccc(F)cc2)cc1NC(=O)c1cc(C(F)(F)F)nc2ccc(Br)cc12 [Example 22, 6-bromo-N-[1-(4-fluorobenzyl)-3-(methylcarbamoyl)-1H-pyrazol-4-yl]-2-(trifluoromethyl)quinoline-4-carboxamide]	20100 nM
COCCNC(=O)c1nn(Cc2ccc(F)cc2)cc1NC(=O)c1cc(C(F)(F)F)nc2ccc(Br)cc12 [Example 23, 6-bromo-N-{1-(4-fluorobenzyl)-3-[(2-methoxyethyl)carbamoyl]-1H-pyrazol-4-yl}-2-(trifluoromethyl)quinoline-4-carboxamide]	20100 nM
COC(=O)c1nn(Cc2ccc(C#N)cc2)cc1NC(=O)c1cc(C(F)(F)F)nc2ccc(Br)cc12 [Example 24, methyl 4-({[6-bromo-2-(trifluoromethyl)quinolin-4-yl]carbonyl}amino)-1-(4-cyanobenzyl)-1H-pyrazole-3-carboxylate]	1650 nM
N#Cc1ccc(Cn2cc(NC(=O)c3cc(C(F)(F)F)nc4ccc(Br)cc34)c(C(=O)O)n2)cc1 [Example 25, 4-({[6-bromo-2-(trifluoromethyl)quinolin-4-yl]carbonyl}amino)-1-(4-cyanobenzyl)-1H-pyrazole-3-carboxylic acid]	10200 nM
N#Cc1ccc(Cn2cc(NC(=O)c3cc(C(F)(F)F)nc4ccc(Br)cc34)c(C(=O)NCCO)n2)cc1 [Example 26, 6-bromo-N-{1-(4-cyanobenzyl)-3-[(2-hydroxyethyl)carbamoyl]-1H-pyrazol-4-yl}-2-(trifluoromethyl)quinoline-4-carboxamide]	7040 nM
CNC(=O)c1nn(Cc2ccc(C#N)cc2)cc1NC(=O)c1cc(C(F)(F)F)nc2ccc(Br)cc12 [Example 27, 6-bromo-N-[1-(4-cyanobenzyl)-3-(methylcarbamoyl)-1H-pyrazol-4-yl]-2-(trifluoromethyl)quinoline-4-carboxamide]	893 nM
